Read-outs that look alike come from different tables or passages of the source.
Tests used:
[1] = target: T1, His-tagged human recombinant DDR-2 kinase domain (His-TEV-DDR2 467-855 aa) (Homo sapiens, UniProt Q16832); test: Autophosphorylation assay for biochemical activity testing of DDR2 (HTRF)
T1 construct: His-TEV-DDR2 467-855 aa
T1 sequence (Q16832 467-855): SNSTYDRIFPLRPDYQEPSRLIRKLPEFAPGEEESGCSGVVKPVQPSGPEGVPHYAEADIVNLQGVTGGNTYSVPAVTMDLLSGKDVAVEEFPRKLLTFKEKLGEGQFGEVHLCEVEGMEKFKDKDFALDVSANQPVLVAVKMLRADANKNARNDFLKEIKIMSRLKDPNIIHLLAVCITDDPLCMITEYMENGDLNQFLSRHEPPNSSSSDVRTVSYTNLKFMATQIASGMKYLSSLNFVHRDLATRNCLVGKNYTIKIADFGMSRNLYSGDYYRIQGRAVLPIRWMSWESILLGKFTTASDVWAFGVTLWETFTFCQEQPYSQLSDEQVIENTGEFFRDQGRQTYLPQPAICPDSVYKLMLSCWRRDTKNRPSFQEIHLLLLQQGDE
In short: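 Phospho-tyrosine was detected by HTRF between XL665 anti-6His and cryptate anti-phosphotyrosine PT66 antibodies, using the emission ratio. Inhibition was referenced to the inhibitor-free reaction.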

[2] = target: T2, HEK293 transfected with human DDR2 (Homo sapiens, UniProt Q16832); test: Phospho-DDR2 cellular assay (collagen II induced DDR2 phosphorylation, ELISA); type: cell-based; settings: read-out: IC50 [p-DDR2]
T2 construct: expressed in transfected cells; host or cells: HEK293 (PLT460F_(DDR2)-P7-1)
T2 sequence (Q16832 22-855): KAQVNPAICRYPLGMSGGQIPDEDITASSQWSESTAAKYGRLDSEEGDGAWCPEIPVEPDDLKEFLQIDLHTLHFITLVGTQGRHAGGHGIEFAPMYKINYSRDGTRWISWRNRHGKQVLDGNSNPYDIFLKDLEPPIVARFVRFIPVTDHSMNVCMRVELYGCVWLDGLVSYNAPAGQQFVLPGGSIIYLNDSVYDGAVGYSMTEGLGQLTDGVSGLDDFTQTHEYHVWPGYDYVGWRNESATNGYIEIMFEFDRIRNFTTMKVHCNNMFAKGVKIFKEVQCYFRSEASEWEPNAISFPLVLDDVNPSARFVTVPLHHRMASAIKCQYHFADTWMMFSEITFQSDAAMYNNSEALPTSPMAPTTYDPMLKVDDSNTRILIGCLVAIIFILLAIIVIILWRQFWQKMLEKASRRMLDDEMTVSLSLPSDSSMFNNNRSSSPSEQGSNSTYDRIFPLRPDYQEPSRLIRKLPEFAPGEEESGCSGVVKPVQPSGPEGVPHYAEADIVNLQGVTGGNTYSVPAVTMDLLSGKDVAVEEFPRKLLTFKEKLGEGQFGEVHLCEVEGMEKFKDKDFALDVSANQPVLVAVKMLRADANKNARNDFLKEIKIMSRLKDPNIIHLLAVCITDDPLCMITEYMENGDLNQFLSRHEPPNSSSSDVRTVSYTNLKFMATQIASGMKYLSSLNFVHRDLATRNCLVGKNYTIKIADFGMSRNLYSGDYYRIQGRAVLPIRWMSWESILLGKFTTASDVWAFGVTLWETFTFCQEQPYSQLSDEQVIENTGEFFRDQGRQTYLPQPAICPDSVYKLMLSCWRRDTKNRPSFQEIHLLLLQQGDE
In short: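 Cells seeded 48 h in 10% FBS, serum-starved 8 h, then given compound (5% DMSO) with 50 μg/ml chicken collagen II for 16 h at 37 °C. Lysates captured on anti-DDR2 antibody plates; phospho-DDR2 detected with HRP anti-phosphotyrosine antibody by chemiluminescence.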

[3] = biochemical DDR2 autophosphorylation
[4] = 4 nM DDR2 kinase domain, 150 μM ATP, 150 min at 22° C.
[5] = HEK293 transfected with human DDR2, 50 μg/ml chicken collagen II, 16 h

Q: Which IC50 [1, 3] does the source give for `CNCCOc1ccc(C)cc1NC(=O)NCc1ccc(Oc2ccnc(C(=O)NC)c2)c(C)c1` [compound 215, 4-(2-Methyl-4-{3-[5-methyl-2-(2-methylamino-ethoxy)-phenyl]-ureidomethyl}-phenoxy)-pyridine-2-carboxylic acid methylamide] here?
A: 69 nM

Q: And the IC50 ([2]; cellular phospho-DDR2)?
A: 40 nM

Q: Which IC50 [1, 3] does the source give for `CNCCOc1cc(C)c(Cl)cc1NC(=O)NCc1ccc(Oc2ccnc(C(=O)NC)c2)cc1` [compound 177, 4-(4-{3-[5-Chloro-4-methyl-2-(2-methylamino-ethoxy)-phenyl]-ureidomethyl}-phenoxy)-pyridine-2-carboxylic acid methylamide] here?
A: 74 nM

Q: And the IC50 ([2]; cellular phospho-DDR2)?
A: 27 nM

Q: What does the source list for `CNC(=O)c1cc(Oc2ccc(CNC(=O)Nc3cc(C(F)(F)F)ccc3OCC(C)(C)N)cc2)ccn1` [compound 160, 4-(4-{3-[2-(2-Amino-2-methyl-propoxy)-5-trifluoromethyl-phenyl]-ureidomethyl}-phenoxy)-pyridine-2-carboxylic acid methylamide]?
A: IC50 [1, 3]: 360 nM; IC50 ([2]; cellular phospho-DDR2): 95 nM

Q: What does the source list for `CNCCOc1ccc(C(F)(F)F)cc1NC(=O)NCc1ccc(Oc2ccnc(C(=O)NC)c2)cc1` [compound 111, 4-(4-{3-[2-(2-Methylamino-ethoxy)-5-trifluoromethyl-phenyl]-ureidomethyl}-phenoxy)-pyridine-2-carboxylic acid methylamide]?
A: IC50 [1, 3]: 64 nM; IC50 ([2]; cellular phospho-DDR2): 24 nM

Q: Which IC50 [1, 3] does the source give for `CNC(=O)c1cc(Oc2ccc(CNC(=O)Nc3cc(C)ccn3)cc2)ccn1` [compound 212, 4-{4-[3-(4-Methyl-pyridin-2-yl)-ureidomethyl]-phenoxy}-pyridine-2-carboxylic acid methylamide] here?
A: 570 nM

Q: What about the IC50 ([2]; cellular phospho-DDR2) of the same molecule?
A: 380 nM

Q: For `CNC(=O)c1cc(Oc2ccc(CNC(=O)Nc3cc(C)c(Cl)cc3OCCN)cc2)ccn1` [compound 145, 4-(4-{3-[2-(2-Amino-ethoxy)-4-chloro-5-methyl-phenyl]-ureidomethyl}-phenoxy)-pyridine-2-carboxylic acid methylamide], which IC50 [1, 3] is on record?
A: 91 nM

Q: What about the IC50 ([2]; cellular phospho-DDR2) of the same molecule?
A: 65 nM

Q: `CNC(=O)c1cc(Oc2ccc(CNC(=O)Nc3cc(C)c(Cl)cc3OCCN3CCOCC3)cc2)ccn1` [compound 110, 4-(4-{3-[4-Chloro-5-methyl-2-(2-morpholin-4-yl-ethoxy)-phenyl]-ureidomethyl}-phenoxy)-pyridine-2-carboxylic acid methylamide] was tested. Which IC50 [1, 3] did it give?
A: 290 nM

Q: And the IC50 ([2]; cellular phospho-DDR2)?
A: 130 nM

Q: Which IC50 [1, 3] does the source give for `CNCCOc1cc(Cl)c(C)cc1NC(=O)NCc1ccc(Oc2ccnc(C(=O)NC)c2)c(C)c1` [compound 141, 4-(4-{3-[4-Chloro-5-methyl-2-(2-methylamino-ethoxy)-phenyl]-ureidomethyl}-2-methyl-phenoxy)-pyridine-2-carboxylic acid methylamide] here?
A: 43 nM

Q: What about the IC50 ([2]; cellular phospho-DDR2) of the same molecule?
A: 25 nM

Q: For `CNC(=O)c1cc(Oc2ccc(CNC(=O)Nc3cc(C(F)(F)F)c(Cl)cc3OC3CCNCC3)cc2)ccn1` [compound 130, 4-(4-{3-[4-Chloro-2-(piperidin-4-yloxy)-5-trifluoromethyl-phenyl]-ureidomethyl}-phenoxy)-pyridine-2-carboxylic acid methylamide], which IC50 [1, 3] is on record?
A: 34 nM

Q: What about the IC50 ([2]; cellular phospho-DDR2) of the same molecule?
A: 24 nM

Q: What does the source list for `CNC(=O)c1cc(Oc2ccc(CNC(=O)Nc3cc(Cl)c(C)cc3OCCN(C)C)cc2)ccn1` [compound 174, 4-(4-{3-[5-Chloro-2-(2-dimethylamino-ethoxy)-4-methyl-phenyl]-ureidomethyl}-phenoxy)-pyridine-2-carboxylic acid methylamide]?
A: IC50 [1, 3]: 140 nM; IC50 ([2]; cellular phospho-DDR2): 28 nM

Q: What does the source list for `CNC(=O)c1cc(Oc2ccc(CNC(=O)Nc3cc(C)c(Cl)cc3OCCCN(C)C)cc2C)ccn1` [compound 163, 4-(4-{3-[4-Chloro-2-(3-dimethylamino-propoxy)-5-methyl-phenyl]-ureidomethyl}-2-methyl-phenoxy)-pyridine-2-carboxylic acid methylamide]?
A: IC50 [1, 3]: 40 nM; IC50 ([2]; cellular phospho-DDR2): 16 nM

Q: `CNC(=O)c1cc(Oc2ccc(CNC(=O)Nc3cccnc3Cl)cc2)ccn1` [compound 226, 4-{4-[3-(2-Chloro-pyridin-3-yl)-ureidomethyl]-phenoxy}-pyridine-2-carboxylic acid methylamide] was tested. Which IC50 [1, 3] did it give?
A: 19000 nM

Q: And the IC50 ([2]; cellular phospho-DDR2)?
A: 11000 nM

Q: What does the source list for `CNCCOc1ccc(C)cc1NC(=O)NCc1ccc(Oc2ccnc(C(=O)NC)c2)cc1` [compound 170, 4-(4-{3-[5-Methyl-2-(2-methylamino-ethoxy)-phenyl]-ureidomethyl}-phenoxy)-pyridine-2-carboxylic acid methylamide]?
A: IC50 [1, 3]: 310 nM; IC50 ([2]; cellular phospho-DDR2): 195 nM

Q: Which IC50 [1, 3] does the source give for `CNC(=O)c1cc(Oc2ccc(CNC(=O)Nc3ccc(C)cn3)cc2)ccn1` [compound 210, 4-{4-[3-(5-Methyl-pyridin-2-yl)-ureidomethyl]-phenoxy}-pyridine-2-carboxylic acid methylamide] here?
A: 2000 nM

Q: And the IC50 ([2]; cellular phospho-DDR2)?
A: 1500 nM

Q: With `CNC(=O)c1cc(Oc2ccc(CNC(=O)Nc3c(Cl)cncc3Cl)cc2)ccn1` [compound 84, 4-{4-[3-(3,5-Dichloro-pyridin-4-yl)-ureidomethyl]-phenoxy}-pyridine-2-carboxylic acid methylamide] as the molecule, how does the IC50 [1, 3] read?
A: 810 nM

Q: And the IC50 ([2]; cellular phospho-DDR2)?
A: 745 nM

Q: How did the IC50 [1, 3] turn out when `CNC(=O)c1cc(Oc2ccc(CNC(=O)Nc3cc(C)c(Cl)cc3OC3CCNCC3)cc2C)ccn1` [compound 142, 4-(4-{3-[4-Chloro-5-methyl-2-(piperidin-4-yloxy)-phenyl]-ureidomethyl}-2-methyl-phenoxy)-pyridine-2-carboxylic acid methylamide] was run?
A: 36 nM

Q: What about the IC50 ([2]; cellular phospho-DDR2) of the same molecule?
A: 33 nM

Q: `CNC(=O)c1cc(Oc2ccc(CNC(=O)Nc3cc(Cl)ccc3OC)cc2C)ccn1` [compound 100, 4-{4-[3-(5-Chloro-2-methoxy-phenyl)-ureidomethyl]-2-methyl-phenoxy}-pyridine-2-carboxylic acid methylamide] was tested. Which IC50 [1, 3] did it give?
A: 120 nM

Q: What about the IC50 ([2]; cellular phospho-DDR2) of the same molecule?
A: 25 nM

Q: Which IC50 [1, 4] does the source give for `O=C(Nc1ccc(Cc2nc3cc[nH]c(=O)c3[nH]2)cc1)Nc1cccc(C(F)(F)F)c1` [compound 4] here?
A: 25 nM

Q: What about the IC50 [2, 5] of the same molecule?
A: 320 nM

Q: What does the source list for `CNC(=O)c1cc(Oc2ccc(CNC(=O)Nc3cc(Cl)ccc3OC)cc2)ccn1` [compound 19]?
A: IC50 [1, 3]: 30 nM; IC50 ([2]; cellular phospho-DDR2): 14 nM

Q: Which results are given for `CNC(=O)c1cc(Oc2ccc(CNC(=O)Nc3cc(Cl)c(C)cc3OC)cc2)ccn1` [compound 66, 4-{4-[3-(5-Chloro-2-methoxy-4-methyl-phenyl)-ureidomethyl]-phenoxy}-pyridine-2-carboxylic acid methylamide]?
A: IC50 [1, 3]: 55 nM; IC50 ([2]; cellular phospho-DDR2): 9 nM

Q: Which IC50 [1, 4] does the source give for `CNC(=O)c1cc(Oc2ccc(COC(=O)Nc3ccc(Cl)c(C(F)(F)F)c3)cc2)ccn1` [compound 6] here?
A: 420 nM

Q: And the IC50 [2, 5]?
A: 270 nM

Q: How did the IC50 [1, 4] turn out when `CNC(=O)c1cc(Oc2ccc(CNC(=O)Nc3cc(C(F)(F)F)cnc3Cl)cc2)ccn1` [compound 24] was run?
A: 130 nM

Q: What about the IC50 [2, 5] of the same molecule?
A: 58 nM

Q: How did the IC50 [1, 3] turn out when `CNC(=O)c1cc(Oc2ccc(CNC(=O)Nc3cc(C(F)(F)F)c(Cl)cc3OCCCN)cc2)ccn1` [compound 191, 4-(4-{3-[2-(3-Amino-propoxy)-4-chloro-5-trifluoromethyl-phenyl]-ureidomethyl}-phenoxy)-pyridine-2-carboxylic acid methylamide] was run?
A: 590 nM

Q: And the IC50 ([2]; cellular phospho-DDR2)?
A: 106 nM

Q: Which IC50 [1, 3] does the source give for `CNC(=O)c1cc(Oc2ccc(CNC(=O)Nc3ccc(C)cn3)cc2C)ccn1` [compound 211, 4-{2-Methyl-4-[3-(5-methyl-pyridin-2-yl)-ureidomethyl]-phenoxy}-pyridine-2-carboxylic acid methylamide] here?
A: 780 nM

Q: And the IC50 ([2]; cellular phospho-DDR2)?
A: 630 nM

Q: `CNC(=O)c1cc(Oc2ccc(CNC(=O)Nc3cc(Cl)c(C)cc3OCC(C)(C)N)cc2)ccn1` [compound 185, 4-(4-{3-[2-(2-Amino-2-methyl-propoxy)-5-chloro-4-methyl-phenyl]-ureidomethyl}-phenoxy)-pyridine-2-carboxylic acid methylamide] was tested. Which IC50 [1, 3] did it give?
A: 460 nM

Q: What about the IC50 ([2]; cellular phospho-DDR2) of the same molecule?
A: 175 nM

— patent US20150225369A1, “DDR2 INHIBITORS FOR THE TREATMENT OF OSTEOARTHRITIS” (Merck Patent GmbH, priority 2012, published 2015)
